Tests used:
Type in all cases: cell-based
M2 muscarinic receptor = molecular target: T1, M2 muscarinic receptor (Homo sapiens, UniProt P08172); assay: Functional mobilization of intracellular calcium (FLIPR), M2-CHO cells; details: for M2 Activity: M2-CHO cells, calcium mobilization (FLIPR)
T1 construct: expressed in transfected cells; host or cells: CHO (M2-CHO)
T1 sequence (P08172 1-466): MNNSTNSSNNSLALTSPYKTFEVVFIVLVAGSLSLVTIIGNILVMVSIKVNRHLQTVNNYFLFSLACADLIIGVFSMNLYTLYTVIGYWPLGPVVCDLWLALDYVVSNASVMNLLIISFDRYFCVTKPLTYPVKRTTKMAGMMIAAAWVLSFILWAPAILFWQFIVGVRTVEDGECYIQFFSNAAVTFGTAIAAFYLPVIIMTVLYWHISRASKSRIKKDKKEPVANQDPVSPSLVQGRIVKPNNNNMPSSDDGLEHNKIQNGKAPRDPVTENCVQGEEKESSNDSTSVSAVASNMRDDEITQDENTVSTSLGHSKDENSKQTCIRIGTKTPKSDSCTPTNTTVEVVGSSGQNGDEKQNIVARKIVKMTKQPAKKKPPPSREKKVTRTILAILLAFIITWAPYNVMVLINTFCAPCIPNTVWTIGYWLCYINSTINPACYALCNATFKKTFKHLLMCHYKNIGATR
In short: (§1)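 FLIPR fluorescence (ex 488, em 540 nm) recorded 60 sec after compound addition to dye-loaded CHO cells. Agonist mode: compound alone. Antagonist mode: 15 min compound pre-incubation, then carbachol at EC80, or co-application. Efficacy expressed as % of maximal carbachol response.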

M3 muscarinic receptor = molecular target: T2, M3 muscarinic receptor (Homo sapiens, UniProt P20309); assay: Functional mobilization of intracellular calcium (FLIPR), M3-CHO cells; details: for M3 Activity: M3-CHO cells, calcium mobilization (FLIPR)
T2 construct: expressed in transfected cells; host or cells: CHO (M3-CHO)
T2 sequence (P20309 whole entry): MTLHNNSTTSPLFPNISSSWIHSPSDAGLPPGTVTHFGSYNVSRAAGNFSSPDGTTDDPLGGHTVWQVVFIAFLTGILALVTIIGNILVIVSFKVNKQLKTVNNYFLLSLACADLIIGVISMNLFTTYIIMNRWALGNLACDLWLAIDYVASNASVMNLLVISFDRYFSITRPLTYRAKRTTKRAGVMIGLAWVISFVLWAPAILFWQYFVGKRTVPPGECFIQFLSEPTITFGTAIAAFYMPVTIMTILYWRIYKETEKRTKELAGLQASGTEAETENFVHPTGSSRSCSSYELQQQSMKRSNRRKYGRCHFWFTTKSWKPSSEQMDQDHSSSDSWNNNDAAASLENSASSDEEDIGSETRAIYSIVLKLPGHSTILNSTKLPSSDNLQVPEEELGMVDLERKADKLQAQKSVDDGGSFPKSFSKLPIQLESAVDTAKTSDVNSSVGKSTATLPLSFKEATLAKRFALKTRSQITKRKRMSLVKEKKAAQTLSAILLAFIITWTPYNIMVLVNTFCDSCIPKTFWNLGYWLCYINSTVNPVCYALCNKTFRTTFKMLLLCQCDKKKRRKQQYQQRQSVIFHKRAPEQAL
In short: as §1

M4 muscarinic receptor = molecular target: T3, M4 muscarinic receptor (Homo sapiens, UniProt P08173); assay: Functional mobilization of intracellular calcium (FLIPR), M4-CHO cells; details: for M4 Activity: M4-CHO cells, calcium mobilization (FLIPR)
T3 construct: expressed in transfected cells; host or cells: CHO (M4-CHO)
T3 sequence (P08173 1-479): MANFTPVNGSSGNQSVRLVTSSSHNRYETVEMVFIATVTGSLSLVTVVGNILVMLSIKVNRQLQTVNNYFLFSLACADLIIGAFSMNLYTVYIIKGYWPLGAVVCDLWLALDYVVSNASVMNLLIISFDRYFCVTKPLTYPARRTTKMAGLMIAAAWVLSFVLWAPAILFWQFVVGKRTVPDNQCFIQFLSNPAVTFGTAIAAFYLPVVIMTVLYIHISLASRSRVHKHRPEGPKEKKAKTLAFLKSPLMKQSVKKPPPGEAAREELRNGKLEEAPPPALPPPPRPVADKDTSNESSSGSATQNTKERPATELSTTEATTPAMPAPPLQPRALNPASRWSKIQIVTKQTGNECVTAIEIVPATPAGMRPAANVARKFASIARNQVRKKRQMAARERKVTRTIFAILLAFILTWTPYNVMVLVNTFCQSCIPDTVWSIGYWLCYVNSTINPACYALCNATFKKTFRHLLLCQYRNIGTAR
In short: as §1

M1 muscarinic receptor = molecular target: T4, M1 muscarinic receptor (Homo sapiens, UniProt P11229); assay: Functional mobilization of intracellular calcium (FLIPR), M1-CHO cells; details: for M1 Activity: M1-CHO cells, calcium mobilization (FLIPR)
T4 construct: expressed in transfected cells; host or cells: CHO (M1-CHO)
T4 sequence (P11229 1-460): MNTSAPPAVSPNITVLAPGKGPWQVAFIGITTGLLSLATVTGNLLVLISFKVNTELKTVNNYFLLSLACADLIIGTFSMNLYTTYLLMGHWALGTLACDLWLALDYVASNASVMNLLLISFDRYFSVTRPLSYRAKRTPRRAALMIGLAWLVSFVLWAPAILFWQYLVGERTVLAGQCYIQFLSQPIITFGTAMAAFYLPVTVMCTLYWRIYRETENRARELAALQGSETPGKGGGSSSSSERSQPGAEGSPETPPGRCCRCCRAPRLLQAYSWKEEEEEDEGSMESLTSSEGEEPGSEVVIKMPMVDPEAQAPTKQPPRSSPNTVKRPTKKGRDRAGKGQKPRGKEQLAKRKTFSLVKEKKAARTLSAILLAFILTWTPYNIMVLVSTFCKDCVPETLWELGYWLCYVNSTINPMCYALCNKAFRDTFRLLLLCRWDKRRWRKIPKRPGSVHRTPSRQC
In short: as §1

[1] = 100% efficacy = maximum response obtained with the Carbachol control

SMILES	Emax (M2 muscarinic receptor; [1]) [%]	Emax (M3 muscarinic receptor; [1]) [%]	Emax (M4 muscarinic receptor; [1]) [%]	Emax (M1 muscarinic receptor; [1]) [%]	M2 Activity (M2 muscarinic receptor)	M3 Activity (M3 muscarinic receptor)	M4 Activity (M4 muscarinic receptor)	M1 Activity (M1 muscarinic receptor)	M2 Efficacy (M2 muscarinic receptor; [1])	M3 Efficacy (M3 muscarinic receptor; [1])	M4 Efficacy (M4 muscarinic receptor; [1])	M1 Efficacy (M1 muscarinic receptor; [1])
COc1ccc(F)cc1C1(O)CCN(C[C@H]2C[C@H]3C=C[C@H]2C3)CC1 [Compound 340]	25 to 100	< 25	25 to 100	25 to 100	+ (activity was measured to be greater than 5.0 μM)	+ (activity was measured to be greater than 5.0 μM)	+++ (activity was measured to be less than 1.0 μM)	+ (activity was measured to be greater than 5.0 μM)				
Cc1ccc(C)c(C2CCN(C3CC4CCC3C4)CC2)c1 (centres unmarked) [Compound 341]	< 25		25 to 100	< 25	+ (activity was measured to be greater than 5.0 μM)	+ (activity was measured to be greater than 5.0 μM)	++ (activity was measured to be from 1.0 μM to 5.0 μM)	+ (activity was measured to be greater than 5.0 μM)				
COc1ccc(-c2ccc(C#N)cc2)cc1C1CCN(C2CCCCC2)CC1 [Compound 342]	< 25	< 25	25 to 100	25 to 100	+ (activity was measured to be greater than 5.0 μM)	+ (activity was measured to be greater than 5.0 μM)	++ (activity was measured to be from 1.0 μM to 5.0 μM)	+ (activity was measured to be greater than 5.0 μM)				
FC(F)(F)c1ccccc1C1CCN(C2CC3CCC(C3)C2)CC1 (centres unmarked) [Compound 343]	< 25	< 25	25 to 100	25 to 100	+ (activity was measured to be greater than 5.0 μM)	+ (activity was measured to be greater than 5.0 μM)	+++ (activity was measured to be less than 1.0 μM)	+ (activity was measured to be greater than 5.0 μM)				
CCOC(=O)N1CCC(CN2CCC(c3cc(-c4ccc(C#N)cc4)ccc3OC)CC2)CC1 [Compound 345]	< 25	< 25	25 to 100	25 to 100	+ (activity was measured to be greater than 5.0 μM)	+ (activity was measured to be greater than 5.0 μM)	+++ (activity was measured to be less than 1.0 μM)	++ (activity was measured to be from 1.0 μM to 5.0 μM)				
COc1ccccc1C1CCN(CC2CC2)CC1 [Compound 346]	< 25	< 25	< 25	< 25	+ (activity was measured to be greater than 5.0 μM)	+ (activity was measured to be greater than 5.0 μM)	+ (activity was measured to be greater than 5.0 μM)	+ (activity was measured to be greater than 5.0 μM)				
COc1ccc(-c2ccccc2C(N)=O)cc1C1CCN([C@H]2C[C@H]3CC[C@H]2C3)CC1 [Compound 347]	< 25	< 25	25 to 100	< 25	+ (activity was measured to be greater than 5.0 μM)	+ (activity was measured to be greater than 5.0 μM)	++ (activity was measured to be from 1.0 μM to 5.0 μM)	+ (activity was measured to be greater than 5.0 μM)				
COc1cc(F)ccc1C1CCN(C2CCOCC2)CC1 [Compound 349]	< 25	< 25	25 to 100	25 to 100	+ (activity was measured to be greater than 5.0 μM)	+ (activity was measured to be greater than 5.0 μM)	+++ (activity was measured to be less than 1.0 μM)	+ (activity was measured to be greater than 5.0 μM)				
C=CCON=C1CCC(N2CCC(c3cc(Cl)ccc3OC)CC2)CC1 (centres unmarked) [Compound 350]					++ (activity was measured to be from 1.0 μM to 5.0 μM)	+ (activity was measured to be greater than 5.0 μM)	+++ (activity was measured to be less than 1.0 μM)	+++ (activity was measured to be less than 1.0 μM)	+ (efficacy was calculated to be less than 25%)	+ (efficacy was calculated to be less than 25%)	++ (efficacy was calculated to be from 100% to 25%)	++ (efficacy was calculated to be from 100% to 25%)
CCOC(=O)N1C2CCC1CC(N1CCC(c3ccccc3OC(F)(F)F)CC1)C2 (centres unmarked) [Compound 355]	< 25	< 25	25 to 100	25 to 100	+ (activity was measured to be greater than 5.0 μM)	+ (activity was measured to be greater than 5.0 μM)	+++ (activity was measured to be less than 1.0 μM)	+++ (activity was measured to be less than 1.0 μM)				

The next lines start with results.

Emax (M2 muscarinic receptor; [1]) [%]	Emax (M3 muscarinic receptor; [1]) [%]	Emax (M4 muscarinic receptor; [1]) [%]	Emax (M1 muscarinic receptor; [1]) [%]	SMILES	M2 Activity (M2 muscarinic receptor)	M3 Activity (M3 muscarinic receptor)	M4 Activity (M4 muscarinic receptor)	M1 Activity (M1 muscarinic receptor)	M2 Efficacy (M2 muscarinic receptor; [1])	M3 Efficacy (M3 muscarinic receptor; [1])	M4 Efficacy (M4 muscarinic receptor; [1])	M1 Efficacy (M1 muscarinic receptor; [1])
< 25	< 25	25 to 100	25 to 100	COc1ccc(-c2ccc(C#N)cc2)cc1C1CCN(C2CCOCC2)CC1 [Compound 352]	+ (activity was measured to be greater than 5.0 μM)	+ (activity was measured to be greater than 5.0 μM)	+ (activity was measured to be greater than 5.0 μM)	+ (activity was measured to be greater than 5.0 μM)				
< 25	< 25	25 to 100	< 25	CNC(=O)c1ccc(-c2ccc(OC)c(C3CCN(C4CCCCC4)CC3)c2)cc1Cl [Compound 353]	+ (activity was measured to be greater than 5.0 μM)	+ (activity was measured to be greater than 5.0 μM)	++ (activity was measured to be from 1.0 μM to 5.0 μM)	+ (activity was measured to be greater than 5.0 μM)				
25 to 100	< 25	25 to 100	25 to 100	COc1ccc(F)cc1C1CCN([C@@H]2C[C@H]3CC[C@H]2C3)CC1 [Compound 354]	++ (activity was measured to be from 1.0 μM to 5.0 μM)	+ (activity was measured to be greater than 5.0 μM)	+++ (activity was measured to be less than 1.0 μM)	+++ (activity was measured to be less than 1.0 μM)				
25 to 100	< 25	25 to 100	25 to 100	COc1ccc(Cl)cc1C1(F)CCN(C2CC3CCC(C3)C2)CC1 (centres unmarked) [Compound 356]	+ (activity was measured to be greater than 5.0 μM)	+ (activity was measured to be greater than 5.0 μM)	+++ (activity was measured to be less than 1.0 μM)	+ (activity was measured to be greater than 5.0 μM)				
< 25	< 25	< 25	< 25	COc1ccc(-c2ccc(S(C)(=O)=O)cc2)cc1C1CCN(C2CCOCC2)CC1 [Compound 357]	+ (activity was measured to be greater than 5.0 μM)	+ (activity was measured to be greater than 5.0 μM)	+ (activity was measured to be greater than 5.0 μM)	+ (activity was measured to be greater than 5.0 μM)				

Source: US7880007B2, “Bicyclic substituted phenyl piperidine modulators of muscarinic receptors” (Vertex Pharmaceuticals Incorporated, priority 2004, dated 2011)
